Assay results: patent publication US10800792B2, “Inhibitors of Bruton's tyrosine kinase and method of their use” (JANSSEN PHARMACEUTICA NV, priority 2015, dated 2020)

target: unphosphorylated-BTK kinase domain (UP-BTK), GST-tagged human BTK (389-659aa) (Homo sapiens (Human), UniProt Q06187); assay: BTK kinase Lanthascreen binding assay; conditions: pIC50 = negative log of the IC50 in molar; 60 minutes incubation, 50 nM Tracer 236
In short: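 Compound binding to the unphosphorylated kinase domain was monitored by displacement of a fluorescently labelled tracer in a Lanthascreen format. Potency is given as pIC50, the negative log of the molar IC50.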

Sequence of unphosphorylated-BTK kinase domain (UP-BTK), GST-tagged human BTK (389-659aa) (Q06187 389-659): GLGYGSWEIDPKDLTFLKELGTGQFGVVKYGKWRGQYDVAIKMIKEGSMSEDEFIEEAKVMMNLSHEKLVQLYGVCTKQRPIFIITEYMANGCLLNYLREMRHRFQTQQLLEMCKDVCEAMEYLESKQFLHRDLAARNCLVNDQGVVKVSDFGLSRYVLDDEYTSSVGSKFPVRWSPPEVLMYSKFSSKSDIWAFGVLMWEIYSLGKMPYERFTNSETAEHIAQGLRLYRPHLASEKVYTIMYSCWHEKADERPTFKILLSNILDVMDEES

In order of rising “BTK_I_binding pIC50” value:
1. CCOc1ccccc1Oc1ccc(N2C(=O)Nc3c(C(=O)N[C@@H]4CCCN(C)C4)sc4nccc2c34)c(C)c1 [Example 157, (R)-5-(4-(2-Ethoxyphenoxy)-2-methylphenyl)-N-(1-methylpiperidin-3-yl)-4-oxo-4,5-dihydro-3H-1-thia-3,5,8-triazaacenaphthylene-2-carboxamide]  6.6
2. Cc1cc(Oc2ccccc2)ccc1N1C(=O)Nc2c(C(=O)N[C@@H]3C[C@@H](F)CN(C)C3)sc3nccc1c23 [Example 160, N-((3R,5R)-5-Fluoro-1-methylpiperidin-3-yl)-5-(2-methyl-4-phenoxyphenyl)-4-oxo-4,5-dihydro-3H-1-thia-3,5,8-triazaacenaphthylene-2-carboxamide]  6.6
3. Cc1cc(Oc2ccccc2)ccc1N1C(=O)Nc2c(C(=O)NC3CCN(C)CC3C)sc3nccc1c23 (stereo not shown) [Example 165, N-(1,3-Dimethylpiperidin-4-yl)-5-(2-methyl-4-phenoxyphenyl)-4-oxo-4,5-dihydro-3H-1-thia-3,5,8-triazaacenaphthylene-2-carboxamide]  6.6
4. Cc1cc(Oc2ccccc2)ccc1N1C(=O)Nc2c(C(=O)N[C@H]3CNCC(F)(F)C3)sc3nccc1c23 [Example 174, (R)—N-(5,5-Difluoropiperidin-3-yl)-5-(2-methyl-4-phenoxyphenyl)-4-oxo-4,5-dihydro-3H-1-thia-3,5,8-triazaacenaphthylene-2-carboxamide]  6.6
5. Cc1cc(Oc2ccccc2)ccc1N1C(=O)Nc2c(C(=O)NC3CCNCC3C)sc3nccc1c23 (stereo not shown) [Example 172, 5-(2-Methyl-4-phenoxyphenyl)-N-(3-methylpiperidin-4-yl)-4-oxo-4,5-dihydro-3H-1-thia-3,5,8-triazaacenaphthylene-2-carboxamide]  6.7
6. Cc1cc(Oc2ccccc2)ccc1N1C(=O)Nc2c(C(=O)NC3CCC(=O)N(C)C3)sc3nccc1c23 (stereo not shown) [Example 162, 5-(2-Methyl-4-phenoxyphenyl)-N-(1-methyl-6-oxopiperidin-3-yl)-4-oxo-4,5-dihydro-3H-1-thia-3,5,8-triazaacenaphthylene-2-carboxamide]  6.8
7. Cc1cc(Oc2ccccc2)ccc1N1C(=O)Nc2c(C(=O)N[C@@H]3C[C@H](F)CN(C)C3)sc3nccc1c23 [Example 164, N-((3R,5S)-5-Fluoro-1-methylpiperidin-3-yl)-5-(2-methyl-4-phenoxyphenyl)-4-oxo-4,5-dihydro-3H-1-thia-3,5,8-triazaacenaphthylene-2-carboxamide]  6.8
8. Cc1cc(Oc2ccccc2)ccc1N1C(=O)Nc2c(C(=O)N[C@@H]3C[C@@H](O)CN(C)C3)sc3nccc1c23 [Example 168, N-((3R,5R)-5-Hydroxy-1-methylpiperidin-3-yl)-5-(2-methyl-4-phenoxyphenyl)-4-oxo-4,5-dihydro-3H-1-thia-3,5,8-triazaacenaphthylene-2-carboxamide]  6.8
9. Cc1cc(Oc2ccccc2)ccc1N1C(=O)Nc2c(C(=O)NC3CCNC(=O)C3)sc3nccc1c23 (stereo not shown) [Example 166, 5-(2-Methyl-4-phenoxyphenyl)-4-oxo-N-(2-oxopiperidin-4-yl)-4,5-dihydro-3H-1-thia-3,5,8-triazaacenaphthylene-2-carboxamide]  6.9
10. COC(C)CC(=O)N1CCC[C@@H](NC(=O)c2sc3nccc4c3c2NC(=O)N4c2ccc(Oc3ccccc3)cc2C)C1 (stereo partly drawn) [Example 155, N-((3R)-1-(3-Methoxybutanoyl)piperidin-3-yl)-5-(2-methyl-4-phenoxyphenyl)-4-oxo-4,5-dihydro-3H-1-thia-3,5,8-triazaacenaphthylene-2-carboxamide]  7.0
11. Cc1cc(Oc2ccccc2)ccc1N1C(=O)Nc2c(C(=O)N[C@H]3CNC[C@@H](F)C3)sc3nccc1c23 [Example 167, N-((3R,5S)-5-fluoropiperidin-3-yl)-5-(2-methyl-4-phenoxyphenyl)-4-oxo-4,5-dihydro-3H-1-thia-3,5,8-triazaacenaphthylene-2-carboxamide]  7.0
12. CCc1ccccc1Oc1ccc(N2C(=O)Nc3c(C(=O)N[C@@H]4CCCN(C)C4)sc4nccc2c34)c(C)c1 [Example 170, (R)-5-(4-(2-Ethylphenoxy)-2-methylphenyl)-N-(1-methylpiperidin-3-yl)-4-oxo-4,5-dihydro-3H-1-thia-3,5,8-triazaacenaphthylene-2-carboxamide]  7.0
13. Cc1cc(Oc2ccccc2)ccc1N1C(=O)Nc2c(C(=O)NC3CC4CCN3CC4)sc3nccc1c23 (stereo not shown) [Example 171, 5-(2-Methyl-4-phenoxyphenyl)-4-oxo-N-(quinuclidin-2-yl)-4,5-dihydro-3H-1-thia-3,5,8-triazaacenaphthylene-2-carboxamide]  7.0
14. Cc1cc(Oc2ccccc2)ccc1N1C(=O)Nc2c(C(=O)N[C@H]3CNC[C@H](O)C3)sc3nccc1c23 [Example 179, N-((3R,5R)-5-Hydroxypiperidin-3-yl)-5-(2-methyl-4-phenoxyphenyl)-4-oxo-4,5-dihydro-3H-1-thia-3,5,8-triazaacenaphthylene-2-carboxamide]  7.0
15. COC[C@H](C)C(=O)N1CCC[C@@H](NC(=O)c2sc3nccc4c3c2NC(=O)N4c2ccc(Oc3ccccc3)cc2C)C1 [Example 156, N—((R)-1-((S)-3-Methoxy-2-methylpropanoyl)piperidin-3-yl)-5-(2-methyl-4-phenoxyphenyl)-4-oxo-4,5-dihydro-3H-1-thia-3,5,8-triazaacenaphthylene-2-carboxamide]  7.1
16. COCC(C)C(=O)N1CCC[C@@H](NC(=O)c2sc3nccc4c3c2NC(=O)N4c2ccc(Oc3ccccc3)cc2C)C1 (stereo partly drawn) [Example 158, N-((3R)-1-(3-Methoxy-2-methylpropanoyl)piperidin-3-yl)-5-(2-methyl-4-phenoxyphenyl)-4-oxo-4,5-dihydro-3H-1-thia-3,5,8-triazaacenaphthylene-2-carboxamide]  7.1
17. Cc1cc(Oc2ccccc2)ccc1N1C(=O)Nc2c(C(=O)N[C@@H]3CCNC3)sc3nccc1c23 [Example 159, (R)-5-(2-methyl-4-phenoxyphenyl)-4-oxo-N-(pyrrolidin-3-yl)-4,5-dihydro-3H-1-thia-3,5,8-triazaacenaphthylene-2-carboxamide]  7.1
18. N#CCC(=O)N1CCC[C@@H](NC(=O)c2sc3nccc4c3c2NC(=O)N4c2ccc(Oc3ccccc3)cc2)C1 [Example 181, (R)—N-(1-(2-Cyanoacetyl)piperidin-3-yl)-4-oxo-5-(4-phenoxyphenyl)-4,5-dihydro-3H-1-thia-3,5,8-triazaacenaphthylene-2-carboxamide]  7.1
19. Cc1cc(Oc2ccccc2)ccc1N1C(=O)Nc2c(C(=O)N[C@H]3CNC[C@H]3F)sc3nccc1c23 [Example 154, N-((3S,4R)-4-Fluoropyrrolidin-3-yl)-5-(2-methyl-4-phenoxyphenyl)-4-oxo-4,5-dihydro-3H-1-thia-3,5,8-triazaacenaphthylene-2-carboxamide]  7.2
20. Cc1cc(Oc2ccccc2)ccc1N1C(=O)Nc2c(C(=O)N[C@@H]3CCCN(C(=O)CCN)C3)sc3nccc1c23 [Example 163, (R)—N-(1-(3-Aminopropanoyl)piperidin-3-yl)-5-(2-methyl-4-phenoxyphenyl)-4-oxo-4,5-dihydro-3H-1-thia-3,5,8-triazaacenaphthylene-2-carboxamide]  7.2
21. N#C/C(=C\C1CC1)C(=O)N1CCC[C@@H](NC(=O)c2sc3nccc4c3c2NC(=O)N4c2c(F)cc(Oc3ccccc3)cc2F)C1 [Example 175, (R,E)-N-(1-(2-Cyano-3-cyclopropylacryloyl)piperidin-3-yl)-5-(2,6-difluoro-4-phenoxyphenyl)-4-oxo-4,5-dihydro-3H-1-thia-3,5,8-triazaacenaphthylene-2-carboxamide]  7.6
22. C#CC(=O)N1CCC[C@@H](NC(=O)c2sc3nccc4c3c2NC(=O)N4c2ccc(Oc3ccccc3)cc2C)C1 [Example 161, (R)-5-(2-Methyl-4-phenoxyphenyl)-4-oxo-N-(1-propioloylpiperidin-3-yl)-4,5-dihydro-3H-1-thia-3,5,8-triazaacenaphthylene-2-carboxamide]  7.7

same assay, conditions: pIC50 = negative log of the IC50 in molar; 60 minutes incubation, 50 nM Tracer 236; read-out: BTK_I_binding pIC50 (converted)

In order of rising IC50:
1. COc1ccc(N2C(=O)Nc3c(C(=O)N[C@@H]4CCCN(C(=O)/C(C#N)=[13CH]/C5CC5)C4)sc4nccc2c34)c(C)c1 [Example 177, ^13C—(R,E)-N-(1-(2-Cyano-3-cyclopropylacryloyl)piperidin-3-yl)-5-(4-methoxy-2-methylphenyl)-4-oxo-4,5-dihydro-3H-1-thia-3,5,8-triazaacenaphthylene-2-carboxamide]  39.8 nM
2. COc1ccc(N2C(=O)Nc3c(C(=O)N[C@@H]4CCCN(C(=O)/C(C#N)=[13CH]\C5CC5)C4)sc4nccc2c34)c(C)c1 [Example 176, ^13C—(R,Z)—N-(1-(2-Cyano-3-cyclopropylacryloyl)piperidin-3-yl)-5-(4-methoxy-2-methylphenyl)-4-oxo-4,5-dihydro-3H-1-thia-3,5,8-triazaacenaphthylene-2-carboxamide]  63.1 nM
3. Cc1cc(OC2CCCCC2)ccc1N1C(=O)Nc2c(C(=O)N[C@@H]3CCCN(C(=O)/C(C#N)=C/C4CC4)C3)sc3nccc1c23 [Example 178, (R,E)-N-(1-(2-Cyano-3-cyclopropylacryloyl)piperidin-3-yl)-5-(4-(cyclohexyloxy)-2-methylphenyl)-4-oxo-4,5-dihydro-3H-1-thia-3,5,8-triazaacenaphthylene-2-carboxamide]  100 nM
